How the values were obtained:
MDA-MB 231 = experiment: Study of cytotoxicity (CellTiter-Blue, 72 hours); type: cell-based; conditions: Homo sapiens, MDA-MB-231; 72 hours of incubation; read-out: IC50 for different cell lines: M231
Procedure: (§1) The biological activity of the compounds of the invention was studied in vitro on 7 human cancer cell lines with different tissue origins (HCT116: colorectal carcinoma; K562: chronic myeloid leukemia; B16-F10: melanoma; U87: glioblastoma; A549: lung cancer and MDA-MB 231 and MDA-MB 435: breast cancer). The cells selected for the study were incubated at 37° C. in the presence of one of the compounds added into the culture medium at different concentrations. The whole of the conducted experiments allowed determination of the toxicity level of the tested compound, its effect on the course of the cell cycle as well as its capacity of inducing cell death by apoptosis.
(§2) The cancer cell lines originate from the American Type Culture Collection (Rockville, Md., USA) and were grown according to the recommendations of the supplier.
(§3) The cells A549, U87, MDA-MB231, MDA-MB435 and B16F10 were grown in a culture medium “Dulbecco minimal essential medium” (DMEM) containing 4.5 g/L of glucose and supplemented with 10% fetal calf serum and 1% glutamine. The K562 and HCT116 were grown in an RPMI 1640 medium containing 10% fetal calf serum and 1% glutamine. All the cell lines were maintained in the culture at 37° C. in a humid atmosphere containing 5% of CO2. Cell viability was evaluated by using the reagent “CellTiter-Blue™” (Promega, Wis., USA) while observing the instructions of the manufacturer. The cells were sown in 96-well culture plates with 5000 cells per well in 50 μL of culture medium. After 24 hours of culture, the compounds of general formula (I) dissolved in DMSO were individually added into each of the wells in an amount of 50 μl per well. All the compounds were tested in triplicate for each defined concentration and each experiment was repeated three times. After 72 hours of incubation, 20 μL of resazurin were added in each well. After 2 hours of incubation, the emitted fluorescence was measured at 590 nm after excitation at 560 nm by means of a fluorescence reader of the Victor type (Perkin-Elmer, USA).
(§4) The concentration of each of the compounds which induces the death of 50% of the cells (IC50) was determined after 72 hours of incubation. Certain compounds according to the invention have an IC50 of the order of one nanomolar concentration, therefore equivalent to CA-4 taken as a reference.

U87 = experiment: Study of cytotoxicity (CellTiter-Blue, 72 hours); type: cell-based; conditions: Homo sapiens, U-87 MG; 72 hours of incubation; read-out: IC50 for different cell lines: U87
Procedure: as §1, §2, §3, §4

K562 cells = experiment: Study of the cell cycle (flow cytometry); type: cell-based, human; conditions: K562, 24 hours, 5 nM
Procedure: (§5) The K562 and MDA-MB231 cells are sown in 6-well culture plates with 300,000 cells per well in their respective media as described above. After 24 hours of culture, the compound (I-1) was added in each of the wells at different concentrations. After 24 hours of incubation, the cells are collected individually in 15 mL tubes and then centrifuged. The cells are then washed twice in cold PBS and then re-suspended in 1 mL of PBS, fixed by adding 2 mL of cold absolute ethanol and placed at 4° C. for 1 hour. After centrifugation, the cells are washed twice in PBS and then the cell pellet is taken up in 100 μL of Triton X100 at 1%. After 30 minutes of incubation at room temperature, 50 μL of RNase A boiled beforehand (1 mg/mL) and 500 μL of propidium iodide (50 μg/mL) are added into each tube and incubated in the dark at room temperature for 30 minutes. The distribution of the number of cells in each of the phases of the cell cycle is then determined by flow cytometry with a cytometer of the FC500 type (Beckman-Coulter, France).
(§6) This effect is significant after 24 hours of exposure of the cells to the compound (I-1) used at a concentration of 5 nM (FIG. 1).

MDA-MB231 cells = experiment: Study of the cell cycle (flow cytometry); type: cell-based, human; conditions: MDA-MB231, 24 hours, 5 nM
Procedure: as §5, §6

[1] = Cytotoxicity on human endothelial cells; type: cell-based; conditions: human; EAhy926, measured after 72 hours; read-out: IC50, cytotoxic activity on EAhy926 (FIG. 4 legend)
Procedure: (§7) Cytotoxicity of compound (I-1) towards human endothelial cells (EAhy926) was evaluated after 1 hour, 3 hours and 6 hours of treatment. The number of living cells was either counted immediately at the end of the treatment (FIG. 3) or 72 hours after stopping the treatment (FIG. 4). It is observed that when the endothelial cells are treated for 72 hours with the compound (I-1), the IC50 is 2 nM.
(§8) The EAhy926 cells (immortalized HUVEC macrovascular endothelial cells) were cultivated in a culture medium “Dulbecco minimal essential medium” (DMEM) containing 4.5 g/L of glucose and supplemented with 10% fetal calf serum, 1% glutamine and a supplement of HAT (100 μM of hypoxanthine, 0.4 μM of aminopterin and 16 μM of thymidine, Invitrogen; Cergy-Pontoise, France). The cells were maintained in the culture at 37° C. in a humid atmosphere containing 5% CO2.
(§9) The cells were sown in 96-well culture plates in an amount of 3,000 cells per well in 50 μL of culture medium. […] At the end of the treatment, the number of cells was evaluated by using the reagent “CellTiter-Blue™” (Promega, Wis., USA) as described earlier. In parallel, after 1 hour, 3 hours or 6 hours of treatment with compound (I-1), the culture medium was removed and replaced with fresh medium for 72 hours and the number of living cells was then measured by using the reagent “CellTiter-Blue™”.

[2] = system: human endothelial cells (EAhy926); experiment: Cytotoxicity on human endothelial cells; type: cell-based; conditions: EAhy926, 1 hour, 3 hours or 6 hours of treatment, dose of 10 nM
Procedure: as §7, §8, §9

[3] = system: human colon tumors LS174T xenografted in Nude mice; experiment: Antivascular activity in vivo (MRI, Dotarem entry into tumors); conditions: LS174T xenograft
Procedure: The antivascular effect of the molecule (I-1) was tested on mice bearing human tumors by comparison with the positive control DMXAA, according to the procedure described by Beauregard et al. (NMR Biomed., 2002, 15:99-105).
Thus, CD-1 Nude female mice were xenografted by subcutaneous injection of human colon tumoral cells (LS174T). The mice bearing tumors were then treated with 0.9% NaCl (carrier, 10 mL/kg), DMXAA (27.5 mg/kg) via an intraperitoneal route (IP) or the molecule (I-1) (45 mg/kg) via an intravenous route (IV). Three hours after administration, the mice were treated with the Dotarem® contrast agent intravenously (IV). The penetration of the contrast agent into the tumors was followed in real time by magnetic resonance imaging (MRI) and is expressed by an enhancement of the intensity of the signal in the tumors. Densitometric analysis of the acquired images allows determination of the maximum enhancement (Rmax) as well as the slope P0 corresponding to the entry rate of Dotarem® into the tumors.

[4] = 3 hours after administration, DMXAA 27.5 mg/kg IP, (I-1) 45 mg/kg IV

SMILES: C=C(c1ccc(OC)c(O)c1)c1cc(OC)c(OC)c(OC)c1 [(I-1)]
- IC50 (MDA-MB 231): 4 nM
- IC50 (U87): 8 nM
- Effect on cell cycle (K562 cells): blocks cell division in the G2/M phase
- Effect on cell cycle (MDA-MB231 cells): blocks cell division in the G2/M phase
- IC50 at 72 h [1]: 2 nM
- Cytotoxic activity on endothelial cells, short treatment [2]: does not exhibit any cytotoxic activity
- Antivascular effect in vivo ([3]; 45 mg/kg IV): has an antivascular effect
- Average of P0 [3, 4]: 1.53±0.82 arbitrary unit
- Average of Rmax [3, 4]: 67.56±33.10 % of the NaCl control

Reference: patent publication US8273768B2, “Iso CA-4 and analogues thereof as potent cytotoxic agents inhibiting tubuline polymerization” (Centre National de la Recherche Scientifique (CNRS), priority 2007, dated 2012)
